One compound from patent US20230181611A1, “REELIN/VEGF-C PRODUCTION/ACTIVATION PROMOTER AND SKIN EXTERNAL COMPOSITION USING THE SAME” (AMOREPACIFIC CORPORATION, priority 2021, published 2023) can be followed below.

Data set [1] deals with Human dermal lymphatic endothelial cells (HDLEC). Put plainly: Cytotoxicity analysis (WST-8 cell viability). In kind it is cell-based. The note with it: 0 to 200 ppm (μg/ml), 24 hours and 72 hours, FIG. 1. Here is the method:
Human dermal lymphatic endothelial cells (HDLEC, PromoCell, Germany) were newly cultured in 96 well dishes for one day and then treated with a compound represented by Chemical Formula E-1 (Biogenics Company) at each concentration of 0 ppm (μg/ml) to 200 ppm (μg/ml). The cells were cultured for 24 hours and 72 hours, and then measured with respect to absorbance at 450 nm by using a QuantiMax WST-8 Cell viability assay kit to check cell viability, and the results are shown in FIG. 1.

In the next data set the test system is reelin. Nature of the data set: Reelin cytokine analysis (ELISA). To be noted: HDLEC, 10 ppm, 48 hours, DMSO control = 100%, FIG. 2. Format: cell-based, human. Here is the method:
After culturing human dermal lymphatic endothelial cells in 6 well plates for 24 hours, while the cells treated with DMSO were used as a control (reference, 100%), the cells were treated with the compound represented by Chemical Formula E-1 at a concentration of 10 ppm and cultured for 48 hours and then measured with respect to production and activity of reelin through a reelin cytokine analysis by using human ELISA Kit (Mybiosource, U.S.A.) according to a manual, and the results are shown in FIG. 2.
Background: An ELISA detects its analyte on a solid surface through an enzyme-linked reagent.

For a further data set, the system named is VEGF-C. Put plainly: VEGF-C cytokine analysis (ELISA). In kind it is cell-based, human. The note with it: HDLEC, 1 ppm and 10 ppm, 48 hours, DMSO control = 100%, FIG. 3. Here is the method:
After culturing human dermal lymphatic endothelial cells in 6 well plates for 24 hours, while the cells treated with DMSO as a control (reference, 100%), the cells were treated with the compound represented by Chemical Formula E-1 at each concentration of 1 ppm and 10 ppm and cultured for 48 hours and then measured with respect to production and activity of VEGF-C through a VEGF-C cytokine analysis by using a VEGFC human ELISA Kit (ThermoFisher, U.S.A.) according to a manual, and the results are shown in FIG. 3.

As for `CC1(C)[C@@H](O[C@H]2OC(C(=O)O)[C@@H](O)C(O)C2O[C@@H]2OC(C(=O)O)[C@@H](O)C(O)C2O)CC[C@]2(C)[C@H]3C(=O)C=C4[C@@H]5C[C@@](C)(C(=O)O)CC[C@]5(C)CC[C@@]4(C)[C@]3(C)CC[C@@H]12` (stereo partly drawn) [Chemical Formula E-1], the “cytotoxicity (cell viability)” value in data set [1] is on record as “no cytotoxicity”. In addition, the “production and activity of reelin compared with the control” value in the data set on reelin was “further improve production and activity of reelin”. Moreover, the “production and activity of VEGF-C compared with the control” value in the data set on VEGF-C was “further improve production and activity of VEGF-C”.
